# Reference: publication PMC9785850, “Encorafenib Acts as a Dual-Activity Chemosensitizer through Its Inhibitory Effect on ABCC1 Transporter In Vitro and Ex Vivo” (Pharmaceutics, 2022)
# pIC50: −log10 of the molar value.
# Assays:
# [1] = biological target: T1, ABCC1 (Homo sapiens, UniProt P33527); assay: daunorubicin accumulation assay in MDCKII-ABCC1 cells, flow cytometry; format: cell-based
# T1 construct: human ABCC1 overexpressed in MDCKII cells
# [2] = biological target: T2, P-glycoprotein (ABCB1) (Homo sapiens, UniProt P08183); assay: daunorubicin accumulation assay in MDCKII-ABCB1 cells, flow cytometry; format: cell-based
# T2 construct: human ABCB1 overexpressed in MDCKII cells
# T2 sequence (P08183 whole entry): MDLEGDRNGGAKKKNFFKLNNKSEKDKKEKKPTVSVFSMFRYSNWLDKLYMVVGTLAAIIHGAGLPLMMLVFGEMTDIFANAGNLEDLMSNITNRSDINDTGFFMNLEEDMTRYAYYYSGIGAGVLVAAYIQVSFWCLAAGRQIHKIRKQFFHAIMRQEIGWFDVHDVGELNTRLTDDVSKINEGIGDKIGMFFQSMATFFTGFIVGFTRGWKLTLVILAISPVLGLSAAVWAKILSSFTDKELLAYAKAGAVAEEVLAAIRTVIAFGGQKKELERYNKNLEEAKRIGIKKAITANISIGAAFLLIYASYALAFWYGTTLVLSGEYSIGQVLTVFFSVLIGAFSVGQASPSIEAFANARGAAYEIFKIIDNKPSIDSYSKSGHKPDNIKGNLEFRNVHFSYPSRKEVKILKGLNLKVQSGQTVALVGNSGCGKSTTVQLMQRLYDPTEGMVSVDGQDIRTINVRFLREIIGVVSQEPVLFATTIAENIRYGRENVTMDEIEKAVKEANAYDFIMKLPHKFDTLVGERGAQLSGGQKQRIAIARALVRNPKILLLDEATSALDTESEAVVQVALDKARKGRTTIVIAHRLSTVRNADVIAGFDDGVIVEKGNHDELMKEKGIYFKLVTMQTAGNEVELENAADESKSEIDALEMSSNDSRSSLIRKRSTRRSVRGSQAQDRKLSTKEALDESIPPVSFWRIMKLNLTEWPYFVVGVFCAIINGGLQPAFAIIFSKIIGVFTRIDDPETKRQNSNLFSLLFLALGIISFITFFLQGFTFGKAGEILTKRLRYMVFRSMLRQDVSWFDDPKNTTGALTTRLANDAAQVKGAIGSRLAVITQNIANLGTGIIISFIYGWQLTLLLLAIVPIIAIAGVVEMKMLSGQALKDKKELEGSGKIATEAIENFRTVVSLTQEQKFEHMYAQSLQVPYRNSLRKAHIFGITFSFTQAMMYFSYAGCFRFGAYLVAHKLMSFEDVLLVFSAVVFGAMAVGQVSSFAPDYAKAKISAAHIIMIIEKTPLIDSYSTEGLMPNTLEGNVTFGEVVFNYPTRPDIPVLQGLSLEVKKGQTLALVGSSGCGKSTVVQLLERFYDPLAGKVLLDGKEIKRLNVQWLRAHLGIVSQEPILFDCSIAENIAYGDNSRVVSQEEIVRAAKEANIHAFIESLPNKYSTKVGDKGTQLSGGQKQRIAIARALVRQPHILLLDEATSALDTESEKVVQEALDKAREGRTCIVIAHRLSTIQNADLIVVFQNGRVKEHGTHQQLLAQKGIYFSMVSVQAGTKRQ
# T1 sequence (P33527 whole entry): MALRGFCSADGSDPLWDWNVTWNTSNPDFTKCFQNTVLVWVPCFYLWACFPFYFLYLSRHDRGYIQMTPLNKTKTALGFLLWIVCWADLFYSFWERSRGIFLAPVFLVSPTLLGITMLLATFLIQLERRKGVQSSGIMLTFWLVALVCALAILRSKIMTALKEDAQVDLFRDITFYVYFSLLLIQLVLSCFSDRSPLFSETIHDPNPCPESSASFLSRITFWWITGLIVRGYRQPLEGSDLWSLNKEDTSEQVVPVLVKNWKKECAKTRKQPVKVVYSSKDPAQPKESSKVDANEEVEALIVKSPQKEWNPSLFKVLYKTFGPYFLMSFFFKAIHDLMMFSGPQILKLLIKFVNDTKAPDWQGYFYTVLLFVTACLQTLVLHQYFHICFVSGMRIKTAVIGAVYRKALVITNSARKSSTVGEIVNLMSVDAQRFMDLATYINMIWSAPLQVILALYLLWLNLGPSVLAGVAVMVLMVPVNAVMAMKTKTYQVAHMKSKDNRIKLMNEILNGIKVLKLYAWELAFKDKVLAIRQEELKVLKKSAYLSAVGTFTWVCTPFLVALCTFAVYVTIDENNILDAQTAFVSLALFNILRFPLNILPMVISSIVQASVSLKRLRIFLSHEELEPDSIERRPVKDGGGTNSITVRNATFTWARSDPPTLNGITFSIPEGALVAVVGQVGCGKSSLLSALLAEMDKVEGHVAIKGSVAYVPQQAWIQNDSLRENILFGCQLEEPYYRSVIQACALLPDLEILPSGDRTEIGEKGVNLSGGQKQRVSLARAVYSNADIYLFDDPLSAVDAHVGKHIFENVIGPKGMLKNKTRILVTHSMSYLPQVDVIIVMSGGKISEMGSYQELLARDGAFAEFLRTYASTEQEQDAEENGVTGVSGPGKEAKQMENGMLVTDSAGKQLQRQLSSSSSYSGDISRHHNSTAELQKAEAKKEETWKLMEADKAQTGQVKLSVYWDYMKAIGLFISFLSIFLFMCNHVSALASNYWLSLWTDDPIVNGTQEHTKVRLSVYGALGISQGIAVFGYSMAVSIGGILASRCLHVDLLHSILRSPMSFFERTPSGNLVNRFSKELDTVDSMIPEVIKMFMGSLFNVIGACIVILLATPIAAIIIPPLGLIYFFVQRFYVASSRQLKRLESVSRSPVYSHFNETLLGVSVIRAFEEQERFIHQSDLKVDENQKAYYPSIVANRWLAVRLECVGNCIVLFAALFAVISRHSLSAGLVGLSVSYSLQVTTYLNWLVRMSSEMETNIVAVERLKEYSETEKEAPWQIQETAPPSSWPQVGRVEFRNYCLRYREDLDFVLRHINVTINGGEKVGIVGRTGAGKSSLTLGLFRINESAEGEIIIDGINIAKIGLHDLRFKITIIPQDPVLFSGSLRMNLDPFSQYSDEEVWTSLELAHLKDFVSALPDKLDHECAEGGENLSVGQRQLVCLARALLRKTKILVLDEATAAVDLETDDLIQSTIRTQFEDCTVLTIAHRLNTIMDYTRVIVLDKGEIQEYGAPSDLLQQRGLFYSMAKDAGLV
structure (smiles),measurement,setting,value
COC(=O)N[C@@H](C)CNc1nccc(-c2cn(C(C)C)nc2-c2cc(Cl)cc(NS(C)(=O)=O)c2F)n1 [encorafenib],pIC50,[1],5.06
same,pIC50,[2],4.60
